We go through 28 compounds from ChEMBL document CHEMBL4011631, “Trisubstituted Pyridinylimidazoles as Potent Inhibitors of the Clinically Resistant L858R/T790M/C797S EGFR Mutant: Targeting of Both Hydrophobic Regions and the Phosphate Binding Site” (J Med Chem, 2017).

The subject of one experiment is A-431. Briefly: cells. In kind it is ADME, cell-based. The settings on record: Homo sapiens, A-431, 96 h.
The subject of another experiment is NCI-H1975. Kind of experiment: cells. Format: functional, cell-based. Particulars: Homo sapiens, NCI-H1975, 96 h.
Experiment [1] deals with Epidermal growth factor receptor (Homo sapiens, UniProt P00533, L858R/T790M).
Epidermal growth factor receptor (Homo sapiens, UniProt P00533, L858R/T790M), sequence (P00533 25-1210 T790M/L858R limits assumed): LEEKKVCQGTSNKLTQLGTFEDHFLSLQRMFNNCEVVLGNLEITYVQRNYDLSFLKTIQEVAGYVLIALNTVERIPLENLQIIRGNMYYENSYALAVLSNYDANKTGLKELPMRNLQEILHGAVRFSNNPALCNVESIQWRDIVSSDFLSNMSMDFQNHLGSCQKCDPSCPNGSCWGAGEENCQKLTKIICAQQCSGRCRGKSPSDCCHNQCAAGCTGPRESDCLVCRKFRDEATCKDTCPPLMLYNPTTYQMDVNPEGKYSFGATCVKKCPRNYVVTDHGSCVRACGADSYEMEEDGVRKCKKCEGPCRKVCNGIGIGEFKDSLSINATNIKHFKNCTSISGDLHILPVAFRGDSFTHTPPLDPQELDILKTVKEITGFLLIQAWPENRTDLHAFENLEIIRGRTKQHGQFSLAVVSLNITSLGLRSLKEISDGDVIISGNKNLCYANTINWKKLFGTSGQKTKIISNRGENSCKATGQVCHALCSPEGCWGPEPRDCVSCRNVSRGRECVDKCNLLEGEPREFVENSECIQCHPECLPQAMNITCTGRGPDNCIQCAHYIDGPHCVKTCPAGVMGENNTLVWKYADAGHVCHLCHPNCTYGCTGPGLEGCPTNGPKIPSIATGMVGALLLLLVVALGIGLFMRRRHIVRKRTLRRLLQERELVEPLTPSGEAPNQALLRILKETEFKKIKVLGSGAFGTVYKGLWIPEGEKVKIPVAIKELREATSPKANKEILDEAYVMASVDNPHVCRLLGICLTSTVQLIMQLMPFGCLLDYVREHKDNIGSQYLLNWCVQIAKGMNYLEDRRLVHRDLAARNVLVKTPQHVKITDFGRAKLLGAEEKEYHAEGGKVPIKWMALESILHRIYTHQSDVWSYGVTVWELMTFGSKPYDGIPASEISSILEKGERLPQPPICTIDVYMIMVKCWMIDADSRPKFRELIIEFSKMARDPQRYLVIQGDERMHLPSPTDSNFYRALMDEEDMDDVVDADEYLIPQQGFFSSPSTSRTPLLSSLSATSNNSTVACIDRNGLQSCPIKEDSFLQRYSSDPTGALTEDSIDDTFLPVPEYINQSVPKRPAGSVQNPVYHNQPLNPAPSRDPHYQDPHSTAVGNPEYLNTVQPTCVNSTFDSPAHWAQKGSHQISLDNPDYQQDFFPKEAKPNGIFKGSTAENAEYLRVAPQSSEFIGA
The target in experiment [2] is Epidermal growth factor receptor (Homo sapiens, UniProt P00533). Format: ADME.
Epidermal growth factor receptor (Homo sapiens, UniProt P00533), sequence (P00533 whole entry): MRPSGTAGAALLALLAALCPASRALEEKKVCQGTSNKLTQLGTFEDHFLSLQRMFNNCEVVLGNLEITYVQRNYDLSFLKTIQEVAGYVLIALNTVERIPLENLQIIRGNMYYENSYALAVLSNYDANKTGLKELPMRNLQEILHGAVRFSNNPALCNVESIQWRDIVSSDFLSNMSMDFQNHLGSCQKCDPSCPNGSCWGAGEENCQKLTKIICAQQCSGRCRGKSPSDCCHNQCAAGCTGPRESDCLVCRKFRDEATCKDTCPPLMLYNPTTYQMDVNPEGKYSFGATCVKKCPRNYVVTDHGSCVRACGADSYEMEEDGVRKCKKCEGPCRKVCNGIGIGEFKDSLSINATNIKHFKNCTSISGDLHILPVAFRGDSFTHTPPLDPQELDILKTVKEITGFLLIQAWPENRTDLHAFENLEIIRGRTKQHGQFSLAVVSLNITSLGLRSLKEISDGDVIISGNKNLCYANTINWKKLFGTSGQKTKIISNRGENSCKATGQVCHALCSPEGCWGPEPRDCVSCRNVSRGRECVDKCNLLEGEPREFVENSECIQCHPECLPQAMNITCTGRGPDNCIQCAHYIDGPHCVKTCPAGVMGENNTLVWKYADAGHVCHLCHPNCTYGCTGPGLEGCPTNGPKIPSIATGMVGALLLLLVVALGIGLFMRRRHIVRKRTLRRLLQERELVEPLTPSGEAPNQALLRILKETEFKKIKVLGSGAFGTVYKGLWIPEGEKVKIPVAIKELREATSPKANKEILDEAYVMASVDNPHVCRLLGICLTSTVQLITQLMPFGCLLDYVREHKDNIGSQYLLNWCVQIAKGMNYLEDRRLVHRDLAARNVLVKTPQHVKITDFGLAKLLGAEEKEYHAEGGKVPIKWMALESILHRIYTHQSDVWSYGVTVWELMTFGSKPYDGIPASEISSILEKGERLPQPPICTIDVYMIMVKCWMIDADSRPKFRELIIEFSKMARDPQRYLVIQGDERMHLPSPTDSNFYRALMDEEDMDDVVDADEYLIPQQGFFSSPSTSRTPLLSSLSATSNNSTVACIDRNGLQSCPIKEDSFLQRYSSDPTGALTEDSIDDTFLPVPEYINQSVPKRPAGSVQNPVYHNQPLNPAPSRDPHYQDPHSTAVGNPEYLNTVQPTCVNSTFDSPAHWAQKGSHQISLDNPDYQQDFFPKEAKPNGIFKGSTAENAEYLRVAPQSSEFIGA
Description: Inhibition of human N-terminal GST-fused EGFR cytoplasmic domain (669 to 1210 residues) expressed in baculovirus using TK-substrate-biotin preincubated for 30 mins followed by substrate addition measured after 25 mins by HTFR assay
Experiment [3] addresses Epidermal growth factor receptor (Homo sapiens, UniProt P00533, L858R).

For orientation: EC50 means the concentration at which the effect is half-maximal. A higher EC50 goes with weaker potency. The IC50 is the concentration needed to halve the response being measured. A lower IC50 goes with greater potency in that assay.

Epidermal growth factor receptor (Homo sapiens, UniProt P00533, L858R), sequence (P00533 25-1210 L858R limits assumed): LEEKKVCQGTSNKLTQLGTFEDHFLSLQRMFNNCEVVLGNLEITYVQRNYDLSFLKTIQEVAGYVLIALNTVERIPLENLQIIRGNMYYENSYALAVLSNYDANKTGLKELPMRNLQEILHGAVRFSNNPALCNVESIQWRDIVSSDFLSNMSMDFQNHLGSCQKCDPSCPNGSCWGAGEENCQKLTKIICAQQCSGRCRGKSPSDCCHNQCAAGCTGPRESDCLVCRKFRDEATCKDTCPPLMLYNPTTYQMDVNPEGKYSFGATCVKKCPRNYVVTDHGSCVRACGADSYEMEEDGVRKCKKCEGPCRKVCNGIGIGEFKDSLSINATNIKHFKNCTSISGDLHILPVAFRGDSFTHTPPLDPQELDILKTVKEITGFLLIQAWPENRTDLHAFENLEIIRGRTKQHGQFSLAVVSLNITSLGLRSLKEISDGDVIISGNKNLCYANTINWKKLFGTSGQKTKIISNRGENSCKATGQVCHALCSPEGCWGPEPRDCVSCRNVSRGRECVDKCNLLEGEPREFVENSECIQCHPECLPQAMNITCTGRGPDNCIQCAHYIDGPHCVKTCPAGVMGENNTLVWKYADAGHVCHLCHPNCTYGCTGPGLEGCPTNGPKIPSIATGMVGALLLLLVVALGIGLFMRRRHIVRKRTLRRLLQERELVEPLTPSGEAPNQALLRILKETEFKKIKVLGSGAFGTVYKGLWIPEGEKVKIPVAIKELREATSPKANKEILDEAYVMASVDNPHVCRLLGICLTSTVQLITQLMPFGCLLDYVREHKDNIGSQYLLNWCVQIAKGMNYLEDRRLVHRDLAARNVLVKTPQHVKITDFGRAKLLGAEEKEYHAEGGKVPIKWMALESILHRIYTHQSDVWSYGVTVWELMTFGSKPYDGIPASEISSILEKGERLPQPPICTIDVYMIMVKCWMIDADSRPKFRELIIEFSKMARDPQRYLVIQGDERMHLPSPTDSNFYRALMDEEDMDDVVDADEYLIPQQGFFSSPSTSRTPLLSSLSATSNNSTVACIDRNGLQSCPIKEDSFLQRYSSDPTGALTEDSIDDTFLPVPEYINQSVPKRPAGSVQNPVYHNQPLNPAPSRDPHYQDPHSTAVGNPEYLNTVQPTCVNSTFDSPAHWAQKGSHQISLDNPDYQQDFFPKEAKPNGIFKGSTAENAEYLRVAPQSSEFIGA
Description for A-431: Antiproliferative activity against human A431 cells harboring wild type EGFR assessed as growth inhibition after 96 hrs by CellTiter-Glo assay

Consider `CN(C)C(=O)CSc1nc(-c2ccc(F)cc2)c(-c2ccnc(Nc3ccccc3)c2)[nH]1`, for which the EC50 worked out at 18000 nM in the experiment with A-431 and 16000 nM in the experiment on NCI-H1975.

For `CC(=O)CCCSc1nc(-c2ccc(F)cc2)c(-c2ccnc(Nc3ccccc3)c2)[nH]1`, the IC50 in experiment [1] was found to be 1330 nM; in experiment [2] it was 185 nM; in experiment [3], 76 nM. The results for the EC50 in the experiment on A-431 and in the experiment with NCI-H1975 were 12000 nM and 14000 nM, respectively.

As for `C=CC(=O)Nc1ccc(OC)c(Nc2cc(-c3[nH]c(SC)nc3C3CCCC3)ccn2)c1`, the IC50 was 4.5 nM in experiment [1], less than 1 nM in experiment [2] and less than 1 nM in experiment [3]. Besides, the EC50 is 7800 nM with A-431 and 1400 nM in the experiment on NCI-H1975.

For `C=CC(=O)NCCSc1nc(-c2ccccc2)c(-c2ccnc(Nc3ccccc3)c2)[nH]1`, the IC50 is 29 nM in experiment [1], 12 nM in experiment [2] and 1.7 nM in experiment [3]. Besides, the EC50 in the experiment on A-431 turned out to be 11000 nM; in the experiment on NCI-H1975, 3200 nM.

Take `C=CC(=O)N1CCC(Sc2nc(-c3ccc(F)cc3)c(-c3ccnc(Nc4ccccc4)c3)[nH]2)C1` (stereo not given): the IC50 in experiment [1] was determined as 417 nM; in experiment [2] it was 217 nM; in experiment [3], 25 nM. The EC50 in the experiment on A-431 was found to be 17000 nM; with NCI-H1975, 14000 nM.

Turning to `Fc1ccc(-c2nc(SCCN3CCOCC3)[nH]c2-c2ccnc(Nc3ccccc3)c2)cc1`, the IC50 turned out to be 1250 nM in experiment [1], 183 nM in experiment [2] and 75 nM in experiment [3]. Moreover, the EC50 was 10000 nM in the experiment with A-431 and 15000 nM in the experiment with NCI-H1975.

Take `N#CCCSc1nc(-c2ccc(F)cc2)c(-c2ccnc(Nc3ccccc3)c2)[nH]1`: the IC50 in experiment [1] came out at 746 nM; in experiment [2], 109 nM; in experiment [3], 40 nM. The EC50 in the experiment on A-431 was found to be 17000 nM; with NCI-H1975, 16000 nM.

As for `CSc1nc(-c2ccc(F)cc2)c(-c2ccnc(Nc3cc(N4CCN(C)CC4)cc([N+](=O)[O-])c3)c2)[nH]1`, the IC50 in experiment [1] is 12 nM; in experiment [2] it was 2.1 nM; in experiment [3], less than 1 nM. The EC50 was 7800 nM with A-431 and 13000 nM with NCI-H1975.

Take `OCCSc1nc(-c2ccc(F)cc2)c(-c2ccnc(Nc3ccccc3)c2)[nH]1`: the IC50 in experiment [1] turned out to be 83 nM; in experiment [2], 11 nM; in experiment [3], 1.1 nM. The EC50 in the experiment with A-431 was found to be 11000 nM; in the experiment with NCI-H1975 it was 16000 nM.

With `C=CC(=O)N1CCC[C@@H]1CSc1nc(-c2ccc(F)cc2)c(-c2ccnc(Nc3ccccc3)c2)[nH]1`, the results for the EC50 in the experiment on A-431 and in the experiment on NCI-H1975 were 6900 nM and 3400 nM, respectively.

Regarding `C=CC(=O)NCc1cn(Cc2cccc(Nc3cc(-c4[nH]c(SC)nc4-c4ccc(F)cc4)ccn3)c2)nn1`, the IC50 was 597 nM in experiment [1], 164 nM in experiment [2] and 46 nM in experiment [3]. Also, the EC50 with A-431 is 24000 nM; with NCI-H1975, 23000 nM.

In the case of `C=CC(=O)Nc1cccc(Nc2cc(-c3[nH]c(SC)nc3-c3ccc(F)cc3)ccn2)n1`, the figures for the IC50 in experiment [1], in experiment [2] and in experiment [3] were 3.1 nM, less than 1 nM and less than 1 nM, respectively. Further, the figures for the EC50 with A-431 and with NCI-H1975 were 1700 nM and 1500 nM, respectively.

Turning to `C=CC(=O)Nc1ccc(OC)c(Nc2cc(-c3[nH]c(SC)nc3C3CC3)ccn2)c1`, the IC50 in experiment [1] was 7.4 nM; in experiment [2], 2.3 nM; in experiment [3] it was less than 1 nM. The values for the EC50 in the experiment with A-431 and in the experiment with NCI-H1975 were 8000 nM and 2300 nM, respectively.

Take `CN(C)C/C=C/C(=O)NCCSc1nc(-c2ccc(F)cc2)c(-c2ccnc(Nc3ccccc3)c2)[nH]1`: the half-maximal inhibitory concentration (IC50) is 18 nM in experiment [1], 2.7 nM in experiment [2] and 1.9 nM in experiment [3]. Also, the figures for the EC50 in the experiment on A-431 and in the experiment on NCI-H1975 were 6600 nM and greater than 5000 nM, respectively.

Regarding `CCC(=O)NCCSc1nc(-c2ccc(F)cc2)c(-c2ccnc(Nc3ccccc3)c2)[nH]1`, the results for the IC50 in experiment [1], in experiment [2] and in experiment [3] were 52 nM, 33 nM and 3.2 nM, respectively. Further, the EC50 in the experiment on A-431 stood at 16000 nM; in the experiment on NCI-H1975, 9700 nM.

In the case of `C=CC(=O)Nc1ccc(OC)c(Nc2cc(-c3[nH]c(SC)nc3C(C)(C)C)ccn2)c1`, the IC50 in experiment [1] stood at 485 nM; in experiment [2] it was 57 nM; in experiment [3], 16 nM. Besides, the figures for the EC50 with A-431 and with NCI-H1975 were 20000 nM and 18000 nM, respectively.

Regarding `C=CC(=O)NCc1cccc(Nc2cc(-c3[nH]c(SC)nc3-c3ccc(F)cc3)ccn2)c1`, the IC50 in experiment [1] was found to be 89 nM; in experiment [2] it was 16 nM; in experiment [3], 4.9 nM. Also, the EC50 amounted to 14000 nM with A-431 and 3400 nM with NCI-H1975.

With `C=CC(=O)N1CCC[C@H]1CSc1nc(-c2ccc(F)cc2)c(-c2ccnc(Nc3ccccc3)c2)[nH]1`, the EC50 in the experiment on A-431 was 8800 nM; in the experiment with NCI-H1975, 4700 nM.

`C=CC(=O)NCCSc1nc(-c2ccc(F)c(C(F)(F)F)c2)c(-c2ccnc(Nc3ccccc3)c2)[nH]1`: the IC50 came to 646 nM in experiment [1], 45 nM in experiment [2] and 144 nM in experiment [3]. For the same compound, the figures for the EC50 with A-431 and in the experiment on NCI-H1975 were 11000 nM and 3100 nM, respectively.

Turning to `NCCSc1nc(-c2ccc(F)cc2)c(-c2ccnc(Nc3ccccc3)c2)[nH]1`, the results for the IC50 in experiment [1], in experiment [2] and in experiment [3] were 29 nM, 4.8 nM and 2.6 nM, respectively. The values for the EC50 in the experiment with A-431 and in the experiment on NCI-H1975 were 11000 nM and 7200 nM, respectively.

With `C=CC(=O)Nc1ccc(OC)c(Nc2cc(-c3cnc(SC)[nH]3)ccn2)c1`, the results for the IC50 in experiment [1], in experiment [2] and in experiment [3] were 8.6 nM, 17 nM and 5.6 nM, respectively. In addition, the values for the EC50 in the experiment on A-431 and in the experiment with NCI-H1975 were 4100 nM and 2000 nM, respectively.

As for `C=CC(=O)Nc1ccc(OC)c(Nc2cc(-c3[nH]c(SC)nc3C)ccn2)c1`, the values for the IC50 in experiment [1], in experiment [2] and in experiment [3] were 33 nM, 32 nM and 10 nM, respectively. Moreover, the EC50 in the experiment with A-431 turned out to be 9700 nM; in the experiment with NCI-H1975 it was 4100 nM.

With `NCCCSc1nc(-c2ccc(F)cc2)c(-c2ccnc(Nc3ccccc3)c2)[nH]1`, the IC50 in experiment [1] is 240 nM; in experiment [2], 55 nM; in experiment [3], 12 nM. In addition, the values for the EC50 with A-431 and in the experiment with NCI-H1975 were 7400 nM and 8400 nM, respectively.

Regarding `C=CC(=O)NCCCSc1nc(-c2ccc(F)cc2)c(-c2ccnc(Nc3ccccc3)c2)[nH]1`, the IC50 in experiment [1] was 321 nM; in experiment [2], 16 nM; in experiment [3], 22 nM. Moreover, the results for the EC50 in the experiment with A-431 and in the experiment with NCI-H1975 were 1400 nM and 1300 nM, respectively.

Consider `CSc1nc(-c2ccc(F)cc2)c(-c2ccnc(Nc3cc(F)cc([N+](=O)[O-])c3)c2)[nH]1`, for which the IC50 in experiment [1] is 586 nM; in experiment [2] it was 265 nM; in experiment [3], 55 nM. Also, the EC50 in the experiment on A-431 was 19000 nM; in the experiment with NCI-H1975, 30000 nM.

As for `C=CC(=O)Nc1ccc(OC)c(Nc2cc(-c3[nH]c(SC)nc3-c3cccs3)ccn2)c1`, the IC50 in experiment [1], in experiment [2] and in experiment [3] was less than 1 nM each time. The EC50 in the experiment on A-431 was 7400 nM; in the experiment on NCI-H1975, 84 nM.

For `C=CC(=O)Nc1cccc(Oc2nc(Nc3ccc(N4CCN(C)CC4)cc3OC)ncc2Cl)c1`, the figures for the EC50 in the experiment with A-431 and in the experiment on NCI-H1975 were 2200 nM and 100 nM, respectively.

As to `C=CC(=O)Nc1cc(Nc2nccc(-c3cn(C)c4ccccc34)n2)c(OC)cc1N(C)CCN(C)C` [OSIMERTINIB], the EC50 in the experiment with A-431 turned out to be […]; in the experiment with NCI-H1975 it was […].
